Drawing on ChEMBL document CHEMBL4311999, “3-Hydrazinoisatin-based benzenesulfonamides as novel carbonic anhydrase inhibitors endowed with anticancer activity: Synthesis, in vitro biological evaluation and in silico insights” (Eur J Med Chem, 2019), this text covers inhibition of growth and Ki for 2 compounds.

In general, Ki refers to a measure of affinity in units of concentration, obtained from inhibition or displacement.

In one test the test system is NCI-H226. The test is described as follows: Growth inhibition of human NCI-H226 cells at 10 uM incubated for 48 hrs by sulforhodamine B assay relative to control. The test is classed as functional. The conditions noted are these: NCI-H226, 48 h, read-out: GI. (In general: In SRB staining, fixed cells bind dye roughly in proportion to their protein.)
A further test deals with SK-MEL-5. The test is described as follows: Growth inhibition of human SK-MEL-5 cells at 10 uM incubated for 48 hrs by sulforhodamine B assay relative to control. The conditions noted are these: SK-MEL-5, 48 h, read-out: GI. The test is classed as functional.
The subject of the next test is TK-10. The test is described as follows: Growth inhibition of human TK10 cells at 10 uM incubated for 48 hrs by sulforhodamine B assay relative to control. The test is classed as functional. The following applies: TK-10, 48 h, read-out: GI.
In a further test the test system is SN12C. Description: Growth inhibition of human SN12C cells at 10 uM incubated for 48 hrs by sulforhodamine B assay relative to control. The test is classed as functional. The following applies: read-out: GI.
A further test deals with OVCAR-8. The test is described as follows: Growth inhibition of human OVCAR8 cells at 10 uM incubated for 48 hrs by sulforhodamine B assay relative to control. The test is classed as functional. The following applies: OVCAR-8, 48 h, read-out: GI.
The subject of another test is HT-29. The test is described as follows: Growth inhibition of human HT-29 cells at 10 uM incubated for 48 hrs by sulforhodamine B assay relative to control. The test is classed as functional. The following applies: HT-29, 48 h, read-out: GI.
Another test deals with ACHN. Description: Growth inhibition of human ACHN cells at 10 uM incubated for 48 hrs by sulforhodamine B assay relative to control. The test is classed as functional. The conditions noted are these: read-out: GI.
Another test relates to SW-620. The test is described as follows: Growth inhibition of human SW620 cells at 10 uM incubated for 48 hrs by sulforhodamine B assay relative to control. The test is classed as functional. The conditions noted are these: SW-620, 48 h, read-out: GI.
Another test has as its system PC-3. Description: Growth inhibition of human PC3 cells at 10 uM incubated for 48 hrs by sulforhodamine B assay relative to control. The conditions noted are these: PC-3, 48 h, read-out: GI. The test is classed as functional.
The next test has as its system A549. Description: Growth inhibition of human A549/ATCC cells at 10 uM incubated for 48 hrs by sulforhodamine B assay relative to control. The test is classed as functional. The conditions noted are these: A549, 48 h, read-out: GI.
For the next test, the system named is MDA-MB-468. The test is described as follows: Growth inhibition of human MDA-MB-468 cells at 10 uM incubated for 48 hrs by sulforhodamine B assay relative to control. The test is classed as functional. The following applies: MDA-MB-468, 48 h, read-out: GI.
The test system of the next test is DU-145. Description: Growth inhibition of human DU145 cells at 10 uM incubated for 48 hrs by sulforhodamine B assay relative to control. The test is classed as functional. The following applies: DU-145, 48 h, read-out: GI.
The test system of a further test is BT-549. The test is described as follows: Growth inhibition of human BT549 cells at 10 uM incubated for 48 hrs by sulforhodamine B assay relative to control. The conditions noted are these: BT-549, 48 h, read-out: GI. The test is classed as functional.
Another test concerns UACC-257. The test is described as follows: Growth inhibition of human UACC257 cells at 10 uM incubated for 48 hrs by sulforhodamine B assay relative to control. The conditions noted are these: UACC-257, 48 h, read-out: GI. The test is classed as functional.
The next test has as its system MDA-MB-231. Description: Growth inhibition of human MDA-MB-231 cells at 10 uM incubated for 48 hrs by sulforhodamine B assay relative to control. The test is classed as functional. The conditions noted are these: MDA-MB-231, 48 h, read-out: GI.
In another test the test system is UO-31. Description: Growth inhibition of human UO31 cells at 10 uM incubated for 48 hrs by sulforhodamine B assay relative to control. The following applies: UO-31, 48 h, read-out: GI. The test is classed as functional.
In another test the test system is 786-0. The test is described as follows: Growth inhibition of human 786-0 cells at 10 uM incubated for 48 hrs by sulforhodamine B assay relative to control. The test is classed as functional. The following applies: 786-0, 48 h, read-out: GI.
A further test relates to CCRF-CEM. The test is described as follows: Growth inhibition of human CCRF-CEM cells at 10 uM incubated for 48 hrs by sulforhodamine B assay relative to control. The test is classed as functional. The conditions noted are these: read-out: GI.
In a further test the test system is OVCAR-4. Description: Growth inhibition of human OVCAR4 cells at 10 uM incubated for 48 hrs by sulforhodamine B assay relative to control. The following applies: OVCAR-4, 48 h, read-out: GI. The test is classed as functional.
Another test concerns CAKI-1. The test is described as follows: Growth inhibition of human Caki1 cells at 10 uM incubated for 48 hrs by sulforhodamine B assay relative to control. The following applies: CAKI-1, 48 h, read-out: GI. The test is classed as functional.
A further test relates to KM12. Description: Growth inhibition of human KM12 cells at 10 uM incubated for 48 hrs by sulforhodamine B assay relative to control. The test is classed as functional. The following applies: KM12, 48 h, read-out: GI.
The next test has as its system A498. Description: Growth inhibition of human A498 cells at 10 uM incubated for 48 hrs by sulforhodamine B assay relative to control. The test is classed as functional. The conditions noted are these: A498, 48 h, read-out: GI.
In the next test the test system is SK-MEL-2. Description: Growth inhibition of human SK-MEL-2 cells at 10 uM incubated for 48 hrs by sulforhodamine B assay relative to control. The test is classed as functional. The conditions noted are these: SK-MEL-2, 48 h, read-out: GI.
For a further test, the system named is NCI/ADR-RES. Description: Growth inhibition of human NCI/ADR-RES cells at 10 uM incubated for 48 hrs by sulforhodamine B assay relative to control. The test is classed as functional. The following applies: read-out: GI.
Another test deals with HCT-15. The test is described as follows: Growth inhibition of human HCT15 cells at 10 uM incubated for 48 hrs by sulforhodamine B assay relative to control. The following applies: HCT-15, 48 h, read-out: GI. The test is classed as functional.
For the next test, the system named is EKVX. The test is described as follows: Growth inhibition of human EKVX cells at 10 uM incubated for 48 hrs by sulforhodamine B assay relative to control. The test is classed as functional. The conditions noted are these: read-out: GI.
In another test the test system is T47D. Description: Growth inhibition of human T47D cells at 10 uM incubated for 48 hrs by sulforhodamine B assay relative to control. The test is classed as functional. The conditions noted are these: read-out: GI.
For another test, the system named is MCF7. Description: Growth inhibition of human MCF7 cells at 10 uM incubated for 48 hrs by sulforhodamine B assay relative to control. The test is classed as functional. The following applies: MCF7, 48 h, read-out: GI.
The test system of another test is NCI-H522. The test is described as follows: Growth inhibition of human NCI-H522 cells at 10 uM incubated for 48 hrs by sulforhodamine B assay relative to control. The conditions noted are these: NCI-H522, 48 h, read-out: GI. The test is classed as functional.
A further test has as its system SNB-19. The test is described as follows: Growth inhibition of human SNB19 cells at 10 uM incubated for 48 hrs by sulforhodamine B assay relative to control. The test is classed as functional. The conditions noted are these: SNB-19, 48 h, read-out: GI.
The subject of a further test is UACC-62. The test is described as follows: Growth inhibition of human UACC62 cells at 10 uM incubated for 48 hrs by sulforhodamine B assay relative to control. The test is classed as functional. The following applies: UACC-62, 48 h, read-out: GI.
Another test relates to HCT-116. Description: Growth inhibition of human HCT116 cells at 10 uM incubated for 48 hrs by sulforhodamine B assay relative to control. The test is classed as functional. The following applies: HCT-116, 48 h, read-out: GI.
The next test deals with U-251. The test is described as follows: Growth inhibition of human U251 cells at 10 uM incubated for 48 hrs by sulforhodamine B assay relative to control. The test is classed as functional. The following applies: U-251, 48 h, read-out: GI.
Test [1] addresses T1, Carbonic anhydrase 9 (Homo sapiens, UniProt Q16790). Description: Inhibition of recombinant human carbonic anhydrase 9 preincubated for 15 mins by phenol red dye based stopped flow CO2 hydration assay.
For the next test, the system named is RPMI-8226. Description: Growth inhibition of human RPMI8226 cells at 10 uM incubated for 48 hrs by sulforhodamine B assay relative to control. The test is classed as functional. The conditions noted are these: RPMI-8226, 48 h, read-out: GI.
In the next test the test system is RXF 393. Description: Growth inhibition of human RXF393 cells at 10 uM incubated for 48 hrs by sulforhodamine B assay relative to control. The test is classed as functional. The following applies: RXF 393, 48 h, read-out: GI.
For a further test, the system named is HOP-92. Description: Growth inhibition of human HOP92 cells at 10 uM incubated for 48 hrs by sulforhodamine B assay relative to control. The following applies: HOP-92, 48 h, read-out: GI. The test is classed as functional.
The subject of a further test is NCI-H460. Description: Growth inhibition of human NCI-H460 cells at 10 uM incubated for 48 hrs by sulforhodamine B assay relative to control. The test is classed as functional. The conditions noted are these: NCI-H460, 48 h, read-out: GI.
Test [2] deals with T1, Carbonic anhydrase 9. The test is described as follows: Inhibition of human recombinant carbonic anhydrase 9 by stopped flow CO2 hydration assay.

On to `NS(=O)(=O)c1ccc(N/N=C2\C(=O)N(Cc3ccccc3)c3ccccc32)cc1`, for which the inhibition of growth at 10 µM in the test on NCI-H226 came to 21%; with SK-MEL-5, 12%; with TK-10 it was 19%; with SN12C, 19%; in the test on OVCAR-8, 17%; in the test on HT-29 it was 21%. Moreover, the inhibition of growth at 10 µM in the test on ACHN was determined as 14%; with SW-620 it was 18%; in the test on PC-3 it was 25%; in the test on A549, 25%; with MDA-MB-468 it was 27%; with DU-145, 10%. The inhibition of growth at 10 µM with BT-549 was determined as 16%; with UACC-257, 11%; in the test with MDA-MB-231, 19%; in the test on UO-31, 38%; with 786-0, 22%; with CCRF-CEM it was 36%. The inhibition of growth at 10 µM in the test with OVCAR-4 was determined as 21%; with CAKI-1, 20%; in the test on KM12, 10%; in the test on A498, 10%; in the test with SK-MEL-2, 13%; in the test on NCI/ADR-RES it was 20%. The inhibition of growth at 10 µM in the test with HCT-15 was determined as 13%; in the test with EKVX, 13%; with T47D, 42%; in the test on MCF7, 21%; with NCI-H522 it was 46%; in the test on SNB-19, 13%. In addition, the inhibition of growth at 10 µM amounted to 37% with UACC-62; 28% in the test on HCT-116; 17% in the test with U-251; 38% with RPMI-8226; 10% in the test on RXF 393; 34% in the test with HOP-92. Also, the inhibition of growth at 10 µM with NCI-H460 worked out at 20%. The Ki on Carbonic anhydrase 9 [1] stood at 27.7 nM.
For the compound `NS(=O)(=O)c1ccc(CC/N=C2\NC(=O)/C(=C3/C(=O)Nc4ccc(F)cc43)S2)cc1`, on Carbonic anhydrase 9 [2], the Ki is 287 nM.
